Structures are written as SMILES.

The assay addresses Human DGAT2 (Homo sapiens (Human), UniProt Q96PD7). The assay is described as follows: DGAT2 Enzymatic Activity Assay (triolein formation, LC/MS/MS). In kind it is biochemical. To be noted: hDGAT2 Sf-9 membrane prep; 25 μM diolein, 10 μM oleoyl-CoA; room temperature. As for the experimental part:
Sf-9 insect cells were maintained in Grace's insect cell culture medium with 10% heated-inactivated fetal bovine serum, 1% Pluronic F-68 and 0.14 μg/m Kanamycine sulfate in Erlenmeyer flasks at 28° C. in a shaker incubator. After infection with untagged hDGAT2 baculovirus at multiplicity of infection (MOI) 0.1 for 48 hours, cells were harvested. Cell pellets were suspended in buffer containing 10 mM Tris-HC (pH 7.5), 1 mM EDTA (pH 8.0), 250 mM sucrose and Complete Protease Inhibitor Cocktail (Roche Diagnostics Corp., Indianapolis, Ill.), and sonicated on ice. Membrane fractions were isolated by ultracentrifugation (100,000×g pellet), resuspended in the same buffer, and frozen (−80° C.) for later use. The protein concentration was determined with the BCA Protein Assay kit (Pierce Biotechnology Inc., Rockford, Ill.). Expression of protein levels was analyzed by immunoblotting with goat polyclonal DGAT2 antibody C-15 and donkey anti-goat IgG HRP (Santa Cruz Biotechnology, Inc., Santa Cruz, Calif.) followed by detection with ECL reagent (GE Healthcare, Piscataway, N.J.).
LC/MS/MS analyses were performed using Thermal Fisher's LX4-TSQ Vantage system. This system consists of an Agilent binary high-performance liquid chromatography (HPLC) pumps and a TSQ Vantage triple quadrupole MS/MS instrument. For each sample, 2 μL samples from the top organic layer of in-plate liquid-liquid extraction were injected onto a Thermo Betabasic C4 column (2.1 mm×20 mm, 5 μm particle size). The samples were then eluted using the following conditions; mobile phase: MeOH/water with 0.1% ammonium format=92/8 (v/v), flow rate: 1 mL/min, temperature: 25 C. Data was acquired in positive mode using a heated electrospray ionization (HESI) interface. The operational parameters for the TSQ Vantage MS/MS instrument were a spray voltage of 3000 V, capillary temperature of 280° C., vaporizer temperature 400° C., shealth gas 60 arbitrary unit, Aux gas 40 arbitrary units, S-lens 113 and collision gas 0.16 Pascals. […] (SRM) chromatograms of triolein (Q1: 902.9>Q3:602.3) and internal standard ([…]) were collected for 40 sec. The peak area was integrated by Xcalibur Quan software. The ratio between the triolein generated in the reaction and spiked in internal standard was used to generate percentage inhibition and IC50 values. Compound percentage inhibition was calculated by the following formula: Inhibition %=1−[(compound response−low control)/(high control−low control)]×100%. Potent compounds were titrated and IC50 were calculated by 4 parameter sigmoidal curve fitting formula.
DGAT2 activity was determined by measuring the amount of enzymatic product triolein (1,2,3-Tri(cis-9-octadecenoyl)glycerol) using the membrane prep mentioned above. The assay was carried out in deep well 384 plates in a final volume of 40 μL at room temperature. The assay mixture contained the following: assay buffer (100 mM Tris.Cl, pH 7.0, 20 mM MgCl2, 5% ethanol), 25 μM of diolein, 10 μM of oleoyl-CoA and 10 ng/μL of DGAT2 membrane.

Chain of Human DGAT2 (Q96PD7 whole entry): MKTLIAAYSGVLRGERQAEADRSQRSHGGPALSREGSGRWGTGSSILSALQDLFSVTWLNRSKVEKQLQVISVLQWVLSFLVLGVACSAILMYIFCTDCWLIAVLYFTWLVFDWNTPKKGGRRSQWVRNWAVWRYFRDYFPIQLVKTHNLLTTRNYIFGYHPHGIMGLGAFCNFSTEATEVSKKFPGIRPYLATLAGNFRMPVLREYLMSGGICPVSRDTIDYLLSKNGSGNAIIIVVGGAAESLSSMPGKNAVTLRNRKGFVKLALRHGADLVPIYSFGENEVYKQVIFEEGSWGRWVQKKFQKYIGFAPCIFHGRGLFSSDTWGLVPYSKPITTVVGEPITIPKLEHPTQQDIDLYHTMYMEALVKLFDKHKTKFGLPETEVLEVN

`CC1(NC(=O)c2ccc3c(-c4ccccc4Cl)nn(-c4ccc(F)cc4)c3c2)CCS(=O)(=O)C1` (single isomer, unassigned) [Example 1-A, 3-(2-Chlorophenyl)-1-(4-fluorophenyl)-N-(3-methyl-1,1-dioxidotetrahydrothiophen-3-yl)-1H-indazole-6-carboxamide] displayed an IC50 of 4.5 nM.

As to `CC1(NC(=O)c2ccc3c(-c4ccccc4Cl)nn(-c4ccc(F)cc4)c3c2)CCS(=O)(=O)C1` (single isomer, unassigned) [Example 1-B, 3-(2-chlorophenyl)-1-(4-fluorophenyl)-N-(3-methyl-1,1-dioxidotetrahydrothiophen-3-yl)-1H-indazole-6-carboxamide], the IC50 was found to be 8.3 nM.

In the case of `O=C(NC1CCS(=O)(=O)C1)c1ccc2c(-c3ccccc3Cl)nn(-c3ccc(F)cc3)c2c1` (single isomer, unassigned) [Example 2-A], the IC50 was 12 nM.

In turn, `O=C(NC1CCS(=O)(=O)C1)c1ccc2c(-c3ccccc3Cl)nn(-c3ccc(F)cc3)c2c1` (single isomer, unassigned) [Example 2-B, 3-(2-chlorophenyl)-N-(1,1-dioxidotetrahydrothiophen-3-yl)-1-(4-fluorophenyl)-1H-indazole-6-carboxamide] returned an IC50 of 303 nM.

In turn, `O=C(NC1CC[S+]([O-])C1)c1ccc2c(-c3ccccc3Cl)nn(-c3ccc(F)cc3)c2c1` (single isomer, unassigned) [Example 58-A, 3-(2-chlorophenyl)-1-(4-fluorophenyl)-N-(1-oxidotetrahydrothiophen-3-yl)-1H-indazole-6-carboxamide] returned an IC50 of 668 nM.

Take `O=C(NC1CC[S+]([O-])C1)c1ccc2c(-c3ccccc3Cl)nn(-c3ccc(F)cc3)c2c1` (single isomer, unassigned) [Example 58-B, 3-(2-chlorophenyl)-1-(4-fluorophenyl)-N-(1-oxidotetrahydrothiophen-3-yl)-1H-indazole-6-carboxamide]: the concentration for half-maximal inhibition (IC50) was found to be 608 nM.

On to `CC1(NC(=O)c2ccc3c(-c4cccc(C#N)c4)nn(-c4ccc(F)cc4)c3c2)CCS(=O)(=O)C1` (single isomer, unassigned) [Example 117-B, 3-(3-cyanophenyl)-1-(4-fluorophenyl)-N-(3-methyl-1,1-dioxidotetrahydrothiophen-3-yl)-1H-indazole-6-carboxamide], for which the IC50 was found to be 6.4 nM.

Take `CC1(NC(=O)c2ccc3c(-c4cc(C#N)ccc4Cl)nn(-c4ccc(F)cc4)c3c2)CCS(=O)(=O)C1` (single isomer, unassigned) [Example 119-A, 3-(2-chloro-5-cyanophenyl)-1-(4-fluorophenyl)-N-(3-methyl-1,1-dioxidotetrahydrothiophen-3-yl)-1H-indazole-6-carboxamide]: the IC50 worked out at 8.4 nM.

Molecule `CC1(NC(=O)c2ccc3c(-c4cc(C#N)ccc4Cl)nn(-c4ccc(F)cc4)c3c2)CCS(=O)(=O)C1` (single isomer, unassigned) [Example 119-B, 3-(2-chloro-5-cyanophenyl)-1-(4-fluorophenyl)-N-(3-methyl-1,1-dioxidotetrahydrothiophen-3-yl)-1H-indazole-6-carboxamide] showed an IC50 of 2.5 nM.

`N#Cc1ccc(Cl)c(-c2nn(-c3ccc(F)cc3)c3cc(C(=O)NC4CCS(=O)(=O)C4)ccc23)c1` (single isomer, unassigned) [Example 120-A, 3-(2-chloro-5-cyanophenyl)-N-(1,1-dioxidotetrahydrothiophen-3-yl)-1-(4-fluorophenyl)-1H-indazole-6-carboxamide]: the midpoint of inhibition, the IC50, lay at 4.2 nM.

In the case of `CC1(NC(=O)c2ccc3c(-c4cc(C(N)=O)ccc4Cl)nn(-c4ccc(F)cc4)c3c2)CCS(=O)(=O)C1` (single isomer, unassigned) [Example 121-A, 3-(5-carbamoyl-2-chlorophenyl)-1-(4-fluorophenyl)-N-(3-methyl-1,1-dioxidotetrahydrothiophen-3-yl)-1H-indazole-6-carboxamide], the IC50 came to 132 nM.

Take `CC1(NC(=O)c2ccc3c(-c4cc(C(N)=O)ccc4Cl)nn(-c4ccc(F)cc4)c3c2)CCS(=O)(=O)C1` (single isomer, unassigned) [Example 121-B, 3-(5-carbamoyl-2-chlorophenyl)-1-(4-fluorophenyl)-N-(3-methyl-1,1-dioxidotetrahydrothiophen-3-yl)-1H-indazole-6-carboxamide]: it took 61 nM to reach half-maximal inhibition (IC50).

For `NC(=O)c1ccc(Cl)c(-c2nn(-c3ccc(F)cc3)c3cc(C(=O)NC4CCS(=O)(=O)C4)ccc23)c1` (single isomer, unassigned) [Example 122-A, 3-(5-carbamoyl-2-chlorophenyl)-N-(1,1-dioxidotetrahydrothiophen-3-yl)-1-(4-fluorophenyl)-1H-indazole-6-carboxamide], the half-maximal inhibitory concentration (IC50) was 96 nM.

`CC1(NC(=O)c2ccc3c(-c4cccc(C5CC5)c4)nn(-c4ccc(F)cn4)c3c2)CCS(=O)(=O)C1` (single isomer, unassigned) [Example 125-A, 3-(3-cyclopropylphenyl)-1-(5-fluoropyridin-2-yl)-N-(3-methyl-1,1-dioxidotetrahydrothiophen-3-yl)-1H-indazole-6-carboxamide] registered an IC50 of 4.2 nM.

`CC1(NC(=O)c2ccc3c(-c4cccc(C5CC5)c4)nn(-c4ccc(F)cn4)c3c2)CCS(=O)(=O)C1` (single isomer, unassigned) [Example 125-B, 3-(3-cyclopropylphenyl)-1-(5-fluoropyridin-2-yl)-N-(3-methyl-1,1-dioxidotetrahydrothiophen-3-yl)-1H-indazole-6-carboxamide] yielded an IC50 of 3 nM.

As to `O=C(NC1CCS(=O)(=O)C1)c1ccc2c(-c3cccc(C4CC4)c3)nn(-c3ccc(F)cn3)c2c1` (single isomer, unassigned) [Example 126-A, 3-(3-cyclopropylphenyl)-N-(1,1-dioxidotetrahydrothiophen-3-yl)-1-(5-fluoropyridin-2-yl)-1H-indazole-6-carboxamide], the IC50 is 11 nM.

`N#Cc1ccc(Cl)c(-c2nn(-c3ccc(F)cn3)c3cc(C(=O)NC4CCS(=O)(=O)C4)ccc23)c1` (single isomer, unassigned) [Example 127-A, 3-(2-chloro-5-cyanophenyl)-N-(1,1-dioxidotetrahydrothiophen-3-yl)-1-(5-fluoropyridin-2-yl)-1H-indazole-6-carboxamide] displayed an IC50 of 8.2 nM.

In turn, `CC1(NC(=O)c2ccc3c(-c4cccc(OC(F)F)c4)nn(-c4ccc(F)cn4)c3c2)CCS(=O)(=O)C1` (single isomer, unassigned) [Example 128-A, 3-[3-(difluoromethoxy)phenyl]-1-(5-fluoropyridin-2-yl)-N-(3-methyl-1,1-dioxidotetrahydrothiophen-3-yl)-1H-indazole-6-carboxamide] yielded a concentration for half-maximal inhibition (IC50) of 3.3 nM.

As for `N#Cc1cccc(-c2nn(-c3ccc(F)cc3)c3cc(C(=O)NC4CCS(=O)(=O)C4)ccc23)c1` (single isomer, unassigned) [Example 129-A], the IC50 amounted to 10 nM.

On to `O=C(NC1CCS(=O)(=O)C1)c1ccc2c(-c3cccc(Cl)c3Cl)nn(-c3ccc(F)cc3)c2c1` (single isomer, unassigned) [Example 130-A, 3-(2,3-dichlorophenyl)-N-(1,1-dioxidotetrahydro-thiophen-3-yl)-1-(4-fluorophenyl)-1H-indazole-6-carboxamide], for which half-maximal inhibition (IC50) was put at 3.6 nM.

For the molecule `COc1cccc(-c2nn(-c3ccc(F)cc3)c3cc(C(=O)NC4CCS(=O)(=O)C4)ccc23)c1` (single isomer, unassigned) [Example 131-A, N-(1,1-dioxidotetrahydrothiophen-3-yl)-1-(4-fluorophenyl)-3-(3-methoxyphenyl)-1H-indazole-6-carboxamide], the IC50 worked out at 3 nM.

Consider `O=C(NC1CCS(=O)(=O)C1)c1ccc2c(-c3c(F)cccc3F)nn(-c3ccc(F)cc3)c2c1` (single isomer, unassigned) [Example 132-A, 3-(2,6-difluorophenyl)-N-(1,1-dioxidotetrahydro-thiophen-3-yl)-1-(4-fluorophenyl)-1H-indazole-6-carboxamide], for which it took 25 nM to reach half-maximal inhibition (IC50).

These data come from patent US11104690B2, “Indazole derivatives useful as inhibitors of diacylglyceride O-acyltransferase 2” (Merck Sharp & Dohme Corp., priority 2016, dated 2021).
